From paper PMC10604610, “An Induced Pluripotent Stem Cell-Derived Human Blood–Brain Barrier (BBB) Model to Test the Crossing by Adeno-Associated Virus (AAV) Vectors and Antisense Oligonucleotides” (Biomedicines, 2023) come the findings set out here.

One series relates to hCMEC/D3 cells. The settings on record: hCMEC/D3 on collagen I-coated Transwell polyester insert 0.4 μm pore, 900,000 cells/cm^2, 48 h; apical to basal; tracer 0.1 mg/mL in Ringer HEPES buffer pH 7.4; 37 °C, 60 min; fluorescence; mean of triplicate filters.
A further series relates to iPSC-derived BMECs. Conditions: three iPSC-derived BMEC models (4603, 19-9-7T, AD3-CL1); Transwell polyester insert 0.4 μm pore, 900,000 cells/cm^2, 48 h culture; apical to basal; tracer 0.1 mg/mL in Ringer HEPES buffer pH 7.4; 37 °C, 60 min; fluorescence plate reader; mean of triplicate filters.
In series [1] the test system is undifferentiated iPSCs (4603). Conditions: undifferentiated iPSCs (4603) on collagen IV/fibronectin-coated Transwell insert, 900,000 cells/cm^2, 48 h; apical to basal; tracer 0.1 mg/mL in Ringer HEPES buffer pH 7.4; 37 °C, 60 min; fluorescence; mean of triplicate filters.

Take `O=C([O-])c1ccccc1-c1c2ccc(=O)cc-2oc2cc([O-])ccc12.[Na+].[Na+]` [Na-F, sodium fluorescein]: the “% Permeability (percentage of tracer present in the basal chamber)” value in the series with hCMEC/D3 cells is listed as “significantly higher than in iPSC-derived BMECs but significantly lower than that of control iPSCs”; in the series on iPSC-derived BMECs, “about 5%”.
In the case of lucifer yellow [LY], the results for the “% Permeability (percentage of tracer present in the basal chamber)” value (in series [1]; with hCMEC/D3 cells; in the series with iPSC-derived BMECs) were “around 16%”, “around 16%” and “Less than 2%”, respectively.
